Reference: patent US5547941A, “Cyclic dinucleoside diphosphorothioates, related compounds and pharmaceutical compositions” (priority 1991, dated 1996)
Counter-ions that a name gives are not always drawn.

What was measured:
HIV [1] = assay: Anti-HIV activity on the protein level: viral core protein p24 in supernatant of HIV-infected mitogen-stimulated human lymphocytes (ELISA); format: cell-based, HIV (in peripheral human lymphocytes); details: for HIV p24 in supernatant: 10 μM; for inhibition at 10 µM: Human immunodeficiency virus 1, Lymphocyte
Description: (§1) The compounds of the present invention were tested for antiviral activity on peripheral human lymphocytes isolated by density gradient centrifugation and stimulated with a mitogen.
(§2) Infection was performed with a standardized preparation of HIV and cells, cultured in the presence of the drug for 4 days.
Individual cultures were established to measure viral replication 2, 3 and 4 days after infection. The amount of viral core protein P 24, synthesized and released by the infected cells, was determined in the supernatant of treated and untreated cells on days 2, 3 and 4 by an Elisa.
(§3) The antiviral effect induced by the tested compounds was calculated from the inhibition of the evaluated parameters (i.e.: P24 or RNA) as compared with infected controls.

HIV [2] = assay: Anti-HIV activity on the RNA level: viral RNA synthesized by HIV-infected human lymphocytes (nucleic acid hybridization); format: cell-based, HIV (in peripheral human lymphocytes); details: for HIV RNA: 10 μM; for inhibition at 10 µM: Human immunodeficiency virus 1, Lymphocyte
Description: as §1, §2
The total amount of viral RNA synthesized by the infected lymphocytes was determined on day 2, 3 and 4 by a nucleic acid hybridization technique. By including a standard preparation of HIV-RNA, the amount of synthesized RNA was quantified.
as §3

[3] = tested on: peripheral human lymphocytes; assay: Cytotoxicity (10 μM stated to be non cytotoxic); format: cell-based
[4] = tested on: snake venom phosphodiesterase; assay: Enzymatic hydrolysis of the deprotected dinucleotide thiophosphates by snake venom phosphodiesterase (HPLC substrate disappearance); format: biochemical, Crotalus durissus; details: for Reduction in the area of the HPLC peak relatively to the control / Substrate change on enzymatic hydrolysis (in words): 37° C., pH 8
Description: The two samples XIIa and XIIb can independently undergo an enzymatic degradation by action of an exonuclease like snake venom phosphodiesterase following the disappearance of starting sample by HPLC along the time. […] Accordingly the configuration RP has to be assigned to XIIa and configuration SP to XIIb.
The relative susceptivity of the two substrates XIIa and XIIb to hydrolysis by snake venom phosphodiesterase was determined by incubating a solution (3 mM) of each substrate in Tris buffer (25 mM) containing MgCl2 (5 mM) at pH 8 with the enzyme (1 mg in 0.5 ml) (from Crotalus durissus) purchased from Boehringer and following the substrate disappearance by HPLC. In particular for each substrate a solution was prepared consisting of 700 μl of buffer, 200 μl of substrate solution plus 50 μl of enzyme solution. For each substrate a control was prepared with the same components and volumes except for the enzyme that was replaced by an equal volume of buffer. The four solutions (the two substrates and the two controls) were incubated at 37° C. taking aliquots from each solution at 0 time, 1 hour, 17 hours. Such aliquots were analyzed by HPLC (Whatman Partisphere C18, eluting with a linear gradient from 10% to 30% of methanol 0.1 M ammonium acetate) at 220 nm.

[5] = 72 h, Day 3, read-out: Inhibition of HIV replication on the protein level
[6] = 96 h, Day 4, read-out: Inhibition of HIV replication on the protein level
[7] = 72 h, Day 3, read-out: Inhibition of HIV replication on the RNA level
[8] = 96 h, Day 4, read-out: Inhibition of HIV replication on the RNA level

Structure (SMILES) | HIV p24 in supernatant (HIV [1]; Day 2) [ng p24/ml] | HIV p24 in supernatant (HIV [1]; Day 3, control 2.2 ng p24/ml) [ng p24/ml] | HIV p24 in supernatant (HIV [1]; Day 4, control 21.5 ng p24/ml) [ng p24/ml] | inhibition at 10 µM (HIV [1]; [5]) [%] | inhibition at 10 µM (HIV [1]; [6]) [%] | HIV RNA (HIV [2]; Day 2) [pg RNA/ml] | HIV RNA (HIV [2]; Day 3, control 226 pg RNA/ml) [pg RNA/ml] | HIV RNA (HIV [2]; Day 4, control 612 pg RNA/ml) [pg RNA/ml] | inhibition at 10 µM (HIV [2]; [7]) [%] | inhibition at 10 µM (HIV [2]; [8]) [%] | Cytotoxicity [3] | Relative rate of enzymatic degradation ([4]; XIIa versus XIIb, snake venom phosphodiesterase) | Reduction in the area of the HPLC peak relatively to the control ([4]; after 1 hour) [%] | Reduction in the area of the HPLC peak relatively to the control ([4]; after 17 hours) [%] | Substrate change on enzymatic hydrolysis (in words) ([4]; after 1 hour) | Substrate change on enzymatic hydrolysis (in words) ([4]; after 17 hours)
Nc1ccn([C@H]2C[C@@H]3O[P@](O)(=S)OC[C@H]4O[C@@H](n5ccc(N)nc5=O)C[C@@H]4O[P@](O)(=S)OC[C@H]3O2)c(=O)n1 [Compound IIa, Cyclo-2'-deoxy-(RP)-P-thiocytidylyl-(3'→5')-2'-deoxy-(RP)-P-thiocytidylyl-(3'→5'), sodium salt] | 0.0 | 0.1 | 17.1 | 97 | 20 | 0 | 188 | 465 | 17 | 24 |  |  |  |  |  | 
Nc1ccn([C@H]2C[C@@H]3O[P@@](O)(=S)OC[C@H]4O[C@@H](n5ccc(N)nc5=O)C[C@@H]4O[P@](O)(=S)OC[C@H]3O2)c(=O)n1 [Compound IIb, Cyclo-2'-deoxy-(SP)-P-thiocytidylyl-(3'→5')-2'-deoxy-(RP)-P-thiocytidylyl-(3'→5'), sodium salt] | 0.0 | 0.0 | 3.7 | 100 | 83 | 0 | 0 | 266 | 100 | 56 | non cytotoxic |  |  |  |  | 
Nc1ccn([C@H]2C[C@H](O[P@](O)(=S)OC[C@H]3O[C@@H](n4ccc(N)nc4=O)C[C@@H]3O)[C@@H](CO)O2)c(=O)n1 [XIIa, 2'-deoxy-(RP)-P-thiocytidylyl-(3'→5')-2'-deoxycytidine sodium salt] |  |  |  |  |  |  |  |  |  |  |  | degraded much faster than the sample XIIb | 50 | 72 |  | 
Nc1ccn([C@H]2C[C@H](O[P@@](O)(=S)OC[C@H]3O[C@@H](n4ccc(N)nc4=O)C[C@@H]3O)[C@@H](CO)O2)c(=O)n1 [XIIb, 2'-deoxy-(SP)-P-thiocytidylyl-(3'→5 '-2-deoxycytidinesodium salt] |  |  |  |  |  |  |  |  |  |  |  |  |  |  | almost unchanged | almost unchanged
